# From patent US20110281812A1, “Compounds” (priority 2009, published 2011)
# Tested on: IL-6 production in LPS-stimulated murine spleenocytes
# Assay: Inhibition of IL-6 production in LPS-stimulated murine spleenocytes in vitro
# Assay type: cell-based
# Details: Mus musculus, 50 μM concentration of the compound, read-out: inhibition of interleukin-6 (IL-6) production
# Method: Test and reference substances used in an in vitro assays were dissolved in dimethyl sulfoxide (DMSO) (Sigma Chemical Co., USA) at a concentration of 50 mM and were further diluted to test concentrations in appropriate cell culture medium.
# After cervical dislocation, mouse spleens were removed using sterile dissection tools. Spleens were transferred to a pre-wetted cell strainer in a 50 mL sterile conical tube and cell suspension was made by gentle puddle. Cells were centrifuged (20 min, 300×g) and resuspended in 2 mL of sterile phosphate buffered saline (PBS) (Sigma Chemical Co., USA). Red blood cells were lysed by addition of 3 mL of sterile water and occasionally gentle shaking for 1 minute. Afterwards, the tube was filled to 40 mL with DMEM medium and centrifuged (20 min, 300×g). Cells were resuspended in DMEM supplemented with 1% FBS and seeded in a 24-well plate, 1×10^6 cells per mL medium.
# Final concentrations of 50 μM, 25 μM, 12.5 μM, 6.3 μM and 3.1 μM of test compounds were prepared by diluting a 50 mM DMSO stock in Dulbecco's modified Eagle medium (DMEM) (Gibco, USA) supplemented with 1% heat inactivated fetal bovine serum (FBS) (BioWest, Ringmer, United Kingdom).
# Cells were pre-incubated with the test compounds for 3 h at 37° C., in an atmosphere of 5% CO2 and 90% humidity. Afterwards, cells were stimulated with 1 μg/mL lipopolysaccharide (LPS, E. coli 0111:B4, Sigma Chemical Co., USA) and incubated overnight. Concentration of IL-6 was determined in cell supernatants by sandwich ELISA using capture and detection antibodies (R&D Systems, USA) according to the manufacturer's recommendations.
# Inhibition (as percentage) was calculated using the following formula:
# % inhibition=[1−(concentration of IL-6 in sample−concentration of IL-6 in negative control)/(concentration of IL-6 in positive control−concentration of IL-6 in negative control)]×100.
# The positive control refers to LPS-stimulated samples that were not preincubated with the compounds.
# The negative control refers to unstimulated and untreated samples.
row,SMILES,inhibition at 50 µM
1,"CC[C@H]1OC(=O)[C@H](C)[C@@H](O[C@H]2C[C@@](C)(OC)[C@@H](O)[C@H](C)O2)[C@H](C)[C@@H](O[C@@H]2O[C@H](C)C[C@H](N(C)C)[C@H]2OCCCNC(=O)c2cc(O)ccc2O)[C@](C)(O)C[C@@H](C)CN(C)[C@H](C)[C@@H](O)[C@]1(C)O [Example 32, 2′-O-{3-[(2,5-Dihydroxyphenylcarbonyl)amino]propyl}-9-deoxo-9a-methyl-9a-aza-9a-homoerythromycin A]",> 40%
2,"CC[C@H]1OC(=O)[C@H](C)[C@@H](O[C@H]2C[C@@](C)(OC)[C@@H](O)[C@H](C)O2)[C@H](C)[C@@H](O[C@@H]2O[C@H](C)C[C@H](N(C)C)[C@H]2OCCCNC(=O)c2ccc(N)cc2O)[C@](C)(O)C[C@@H](C)CN(C)[C@H](C)[C@@H](O)[C@]1(C)O [Example 33, 2′-O-(3-{[(4-Amino-2-hydroxyphenyl)carbonyl]amino}propyl)-9-deoxo-9a-methyl-9a-aza-9a-homoerythromycin A]",> 40%
3,"CC[C@H]1OC(=O)[C@H](C)[C@@H](O[C@H]2C[C@@](C)(OC)[C@@H](O)[C@H](C)O2)[C@H](C)[C@@H](O[C@@H]2O[C@H](C)C[C@H](N(C)C)[C@H]2OCCCNC(=O)c2cccnc2Cl)[C@](C)(O)C[C@@H](C)CN(C)[C@H](C)[C@@H](O)[C@]1(C)O [Example 34, 2′-O-(3-{[(2-Chloro-3-pyridinyl)carbonyl]amino}propyl)-9-deoxo-9a-methyl-9a-aza-9a-homoerythromycin A]",> 40%
4,"CC[C@H]1OC(=O)[C@H](C)[C@@H](O[C@H]2C[C@@](C)(OC)[C@@H](O)[C@H](C)O2)[C@H](C)[C@@H](O[C@@H]2O[C@H](C)C[C@H](N(C)C)[C@H]2OCCCNC(=O)c2ccc(C)nc2Cl)[C@](C)(O)C[C@@H](C)CN(C)[C@H](C)[C@@H](O)[C@]1(C)O [Example 35, 2′-O-(3-{[(2-Chloro-6-methyl-3-pyridinyl)carbonyl]amino}propyl)-9-deoxo-9a-methyl-9a-aza-9a-homoerythromycin A]",> 40%
5,"CC[C@H]1OC(=O)[C@H](C)[C@@H](O[C@H]2C[C@@](C)(OC)[C@@H](O)[C@H](C)O2)[C@H](C)[C@@H](O[C@@H]2O[C@H](C)C[C@H](N(C)C)[C@H]2OCCCNC(=O)c2nccnc2N)[C@](C)(O)C[C@@H](C)CN(C)[C@H](C)[C@@H](O)[C@]1(C)O [Example 37, 2′-O-(3-{[(3-Amino-2-pyrazinyl)carbonyl]amino}propyl)-9-deoxo-9a-methyl-9a-aza-9a-homoerythromycin A]",> 40%
6,"CC[C@H]1OC(=O)[C@H](C)[C@@H](O[C@H]2C[C@@](C)(OC)[C@@H](O)[C@H](C)O2)[C@H](C)[C@@H](O[C@@H]2O[C@H](C)C[C@H](N(C)C)[C@H]2OCCCNC(=O)c2c(C)nn(C)c2Cl)[C@](C)(O)C[C@@H](C)CN(C)[C@H](C)[C@@H](O)[C@]1(C)O [Example 38, 2′-O-(3-{[(5-Chloro-1,3-dimethyl-1H-pyrazol-4-yl)carbonyl]amino}propyl)-9-deoxo-9a-methyl-9a-aza-9a-homoerythromycin A]",> 40%
7,"CC[C@H]1OC(=O)[C@H](C)[C@@H](O[C@H]2C[C@@](C)(OC)[C@@H](O)[C@H](C)O2)[C@H](C)[C@@H](O[C@@H]2O[C@H](C)C[C@H](N(C)C)[C@H]2OCCCNC(=O)c2nc(C)oc2C)[C@](C)(O)C[C@@H](C)CN(C)[C@H](C)[C@@H](O)[C@]1(C)O [Example 39, 2′-O-(3-{[(2,5-Dimethyl-1,3-oxazol-4-yl)carbonyl]amino}propyl)-9-deoxo-9a-methyl-9a-aza-9a-homoerythromycin A]",> 40%
8,"CC[C@H]1OC(=O)[C@H](C)[C@@H](O[C@H]2C[C@@](C)(OC)[C@@H](O)[C@H](C)O2)[C@H](C)[C@@H](O[C@@H]2O[C@H](C)C[C@H](N(C)C)[C@H]2OCCCNC(=O)[C@@H]2CCCN2C)[C@](C)(O)C[C@@H](C)CN(C)[C@H](C)[C@@H](O)[C@]1(C)O [Example 40, 2′-O-{3-[(1-Methyl-L-prolyl)amino]propyl}-9-deoxo-9a-methyl-9a-aza-9a-homoerythromycin A]",> 40%
